# In patent US20260294964A1, “PHARMACEUTICALS CONTAINING CHELATORS WITH STRONG ZN IONS-HOLDING FEATURE FOR THE TREATMENT OF SYMPTOMS AND DISEASES CAUSED BY MICROORGANISMS/DISEASES CAUSED BY TOXINS OR NEUROTOXINS/CANCER/SEVERAL SYNDROMES” (priority 2023, published 2026):
# “Also recorded” adds a separate entry of the source. Where two headings read alike, the source gives them in different places.
# Tests used:
# [1] = tested on: Boraras Micros fish
# [2] = tested on: microorganisms that decompose organic matter (bacteria/fungi); experiment: Culture of microorganisms that decompose organic matter; assay type: cell-based; details: for concentration at which proliferation of microorganisms is strongly inhibited: media with growth promoting substances
# [3] = tested on: loss of taste in Covid 19; experiment: Treatment of loss of taste in Covid 19; assay type: in vivo, human; details: solution containing 2% Ca EDTA sucked for a few minutes
# [4] = Safety of Ca EDTA in adults; assay type: in vivo, human; details: 20 g for each time, 4 hours apart
# [5] = tested on: pathogenic microorganisms; experiment: Inhibition/killing of pathogenic microorganisms in water with Boraras Micros fish infected from dead fish; assay type: in vivo; details: for appearance of water after 6 days / fish outcome after 6 days: 10 ppm Ampicillin / 20 ppm Bactrim / 100 ppm triethylenetetramine diethylenetriaminepentaacetate / 300 Mg EDTA / 600 ppm Ca EDTA / combinations as in label
# [6] = tested on: Boraras Micros fish; experiment: Protection of Boraras Micros fish from CuCl2 by chelators; assay type: in vivo; details: 0.4 ppm CuCl2 + a few ppm to more than 10 ppm of chelator
# [7] = Metallic Cu suspension test with 1% Na ascorbate (Cu ion complex formation); assay type: physicochemical; details: with 0.1% CuCl2; excess 1% Na ascorbate
# Text: In an environment containing water in the body of organisms/host bodies (host is animal/human) such as in blood/tissue fluid/alveolar fluid/intracellular fluid . . . ) in conditions where the body is depleted of chelators with [Zn ions/other transition metal ions]-holding (such as the amount of chelators with [Zn ions/other transition metal ions]-holding remains is not significant in the patient's body), Cu ions will attach to [Fe ions in metalloproteins of [host cells/red blood cells/alveolar cells], causing these cells to lose the ability to exchange O2, causing symptoms of acute respiratory failure (not due to lung infection), and this symptom is very dangerous because it can quickly lead to death. Among the bond forces between Cu ions and other metal ions, the bond force of the Cu ion-Fe ion complex is the strongest, can recognize the existence of Cu ion-ion Fe ion complex/Cu ion-Zn ion complex/Cu ion-Mg ion complex/Cu ion-Ca ion complex, and can recognize Cu ion-other metal ion bonds, in which the Cu ion-Fe ion bond is the bond type with the highest magnitude through experiments conducted in water environment (water environment without chelators with [Zn ions/other transition metal ions]-holding) is the environment that simulates the blood environment/alveolar fluid environment of a host with the depletion of these chelators), these experiments were performed by adding an excess amount of 1% Na ascorbate solution to the test tube containing the solution with [0.1 % CuCl2+greater than 0.2% FeCl3]/the test tube containing the solution containing [0.1 % CuCl2+greater than 0.6% ZnCl2]/the test tube containing the solution containing [0.1 % CuCl2+greater than 0.63% MgCl2]/the test tube containing the solution conatining [0 .
# [8] = assay type: physicochemical, animal/human blood; details: for volume that completely dissolves Zn-blood complex suspension: suspension from 1.4 ml 0.1% ZnCl2 in 100 ml 0.9% NaCl with 1% blood; for amount needed to completely dissolve Zn-blood complex suspension, compared with lysine phosphate/lysine chloride/arginine phosphate/arginine chloride: suspension with 2 ppm ZnCl2
# [9] = tested on: avian influenza; design: species or system chicken; details: in vivo
# [10] = Metallic Cu suspension test with 1% Na ascorbate (Cu ion complex formation); assay type: physicochemical; details: 0.1% CuCl2, alone or with several percent of chelator; excess 1% Na ascorbate
# [11] = tested on: sweet taste on the tongue; experiment: Loss and recovery of sweet taste after Zn gluconate; assay type: in vivo, human; details: for recovery of sweet taste: 5% arginine glutamate / 0.5% triethylenetetramine glutamate, 10 seconds
# [12] = tested on: symptoms such as sore throat/cough/headache; experiment: Symptoms generated by ZnCl2 in the throat and their relief; assay type: in vivo, human; details: for disappearance of ZnCl2-induced symptoms: few ml of 10% solution, oral
# [13] = Voltage of metallic Zn-metallic Cu electrode pair in test tube; assay type: physicochemical; details: 0.9% NaCl+0.2 ppm CuCl2+0.4 ppm ZnCl2+0.6 FeCl3
# [14] = tested on: mice; assay type: in vivo, mouse
# [15] = tested on: Boraras Micros fish; experiment: Neutralization of toxins/neurotoxins in Boraras Micros fish; assay type: in vivo
# [16] = tested on: dry eyes/eye pain/red eyes; experiment: Treatment of dry eyes/eye pain/red eyes; assay type: in vivo, human; details: 0.1% eye drops, 2 to 6 times a day
# [17] = tested on: headache; experiment: Treatment of headaches of unknown cause; assay type: in vivo, human; details: 0.5 g oral, adult
# [18] = tested on: toxins/neurotoxins; microorganisms; details: processed foods
# [19] = 2000 ppm triethylenetetramine diethylnenepentaacetate / 3000 ppm Mg EDTA / 2000 ppm Cu EDTA / 12000 ppm Ca EDTA, mixtures at concentrations in label
molecule,measurement,setting,value
"O=C(O)CN(CCN(CC(=O)O)CC(=O)O)CC(=O)O.[Ca] [Ca EDTA, Ethylenediaminetetraacetic acid calcium]",survival of fish,[1]; in vivo,lived for many days
same,time after which fish did not die,[1]; in vivo,≥ 10 days
same,toxicity / safety to host cells,[1]; in vivo,highly safe
same,concentration at which proliferation of microorganisms is strongly inhibited,[2],700 ppm
same,recovery of sweet taste,[3],recover immediately afterwards
same,amount used by adults in 24 hours without side effects,[4],under 120 g
same,appearance of water after 6 days,[5]; calcium,clear; also recorded: transparent
same,fish outcome after 6 days,[5]; calcium,lived; also recorded: did not die
same,survival of fish in CuCl2 with chelator,[6],will not die after several weeks
[Ca+2].[Cl-].[Cl-] [CaCl2],concentration of second metal salt at which metallic Cu suspension will not appear,[7],greater than 0.65%
[Cl][Fe]([Cl])[Cl] [FeCl3],concentration of second metal salt at which metallic Cu suspension will not appear,[7],greater than 0.2%
same,volume that completely dissolves Zn-blood complex suspension,[8]; 0.1% solution,6 mL
"O=C(O)CN(CCN(CC(=O)O)CC(=O)O)CC(=O)O.[Mg] [Mg EDTA, Ethylenediaminetetraacetic acid magnesium]",time after which fish did not die,[1]; 800 ppm EDTA Cu / 3000 ppm EDTA Mg / 12000 ppm EDTA Ca,≥ 10 days
same,survival of fish,[1]; [19],lived for many days
same,appearance of water after 6 days,[5],clear; also recorded: transparent
same,fish outcome after 6 days,[5],lived; also recorded: did not die
same,volume that completely dissolves Zn-blood complex suspension,[8]; 0.1% solution,2 mL
same,"amount needed to completely dissolve Zn-blood complex suspension, compared with lysine phosphate/lysine chloride/arginine phosphate/arginine chloride",[8],tens to hundreds of times lower
same,state of chickens after 12 hours,[9],stopped the lethargic state and they returned to eating normally
same,survival of fish in CuCl2 with chelator,[6],will not die after several weeks
same,appearance of metallic Cu suspension,[10],metallic Cu suspension will not appear
[Cl-].[Cl-].[Mg+2] [MgCl2],concentration of second metal salt at which metallic Cu suspension will not appear,[7],greater than 0.63%
O=C([O-])[C@H](O)[C@@H](O)[C@H](O)[C@H](O)CO.O=C([O-])[C@H](O)[C@@H](O)[C@H](O)[C@H](O)CO.[Zn+2] [Zn gluconate],sweet taste sensation after Zn,"[11]; chewing and sucking 15 mg tablet, 120 seconds",completely lost
[Cl-].[Cl-].[Zn+2] [ZnCl2],concentration in culture medium at which microorganisms multiply strongly,[2]; microorganisms that decompose organic matter (bacteria/fungi),12 ppm
same,ZnCl2 concentration above which Zn-blood suspension begins to appear,[8]; 0.01% blood,above 1.5 ppm
same,ZnCl2 concentration at which suspension appears abundantly,[8]; 0.01% blood,2 ppm
same,volume of 0.1% ZnCl2 solution at which Zn-blood complex suspension begins to appear,[8]; 100 ml of 0.9% NaCl with 1% blood,1.4 mL
same,appearance of symptoms (itchy throat/sore throat/cough/runny nose/body aches/slight fever/headache),"[12]; 2 ml of 0.4% ZnCl2 solution, 120 seconds",appear after a few minutes to a few hours
N=C(N)NCCC[C@H](N)C(=O)O.O=P(O)(O)O [arginine phosphate],volume that completely dissolves Zn-blood complex suspension,[8]; 10% solution,2 mL
same,units of [Zn ions/other transition metal ions] held by one unit of chelator,[8]; synthetic: upper end printed 'more than 200 units',one unit (or few units)
same,"amount used to sharply reduce the voltage, compared with EDTA Mg/triethylenetetramine glutamate/triethylenetetramine diethylenetriaminepentaacetate",[13],dozens of times greater
same,survival of fish in CuCl2 with chelator,[6],will not die after several weeks
"O=c1oc2ccccc2c(O)c1C1CC(c2ccc(OCc3ccc(C(F)(F)F)cc3)cc2)Cc2ccccc21 (centres unmarked) [flocoumafen, reference compound]","time to death of fish, toxin alone",[1]; 1.25 ppm flocoumafen / 0.3 ppm Bromadiolone / 0.2 ppm Methylamine Avermectin,36 h
same,time to death of all mice,"[14]; fed rat poison pills, normal water (control)",about 2 days
arginine glutamate,volume that completely dissolves Zn-blood complex suspension,[8]; 10% solution,1.0 mL
same,recovery of sweet taste,[11],fully recovered
same,"amount used to sharply reduce the voltage, compared with EDTA Mg/triethylenetetramine glutamate/triethylenetetramine diethylenetriaminepentaacetate",[13],dozens of times greater
triethylenetetramine ascorbate,disappearance of ZnCl2-induced symptoms,[12],gradually disappear after a few hours
triethylenetetramine diethylenetriaminepentaacetate,survival of fish with Alpha Cypermethrin,[15]; 0.2 ppm Alpha Cypermethrin + 50-300 ppm chelator,lived for many days
same,survival of fish with Methylamine Avermectin,[15]; 0.2 ppm Methylamine Avermectin + 50-300 ppm chelator,lived for many days
same,survival of fish with Bromadiolone,[15]; 0.3 ppm Bromadiolone + 50-300 ppm chelator,lived for many days
same,survival of fish with phenylperazole,[15]; 1.0 ppm phenylperazole + 50-300 ppm chelator,lived for many days
same,survival of fish with flocoumafen,[15]; 1.25 ppm flocoumafen + 50-300 ppm chelator,lived for many days (up to weeks)
same,survival of fish with Emamectin benzoate,[15]; 2.5 ppm Emamectin benzoate + 50-300 ppm chelator,lived for many days
same,survival of fish with Nereistoxin,[15]; 5 ppm Nereistoxin + 50-300 ppm chelator,lived for many days (up to weeks)
same,dry eyes/eye pain symptoms a few minutes after instilling,[16],no longer exist
same,red eyes symptoms,[16],decrease after a few hours
same,survival of fish,[1]; [19],lived for many days
same,concentration at which proliferation of microorganisms is strongly inhibited,[2],100 ppm
same,time until headache symptoms significantly reduced,[17],about 2 hours
same,appearance of water after 6 days,[5],clear; also recorded: transparent
same,fish outcome after 6 days,[5],lived; also recorded: did not die
same,concentration in host blood/tissue fluid/alveolar fluid above which ability to inhibit/kill pathogenic bacteria far exceeds Bactrim 10 ppm/Ampicillin 20 ppm,[5]; in vivo,above 60 ppm
same,volume that completely dissolves Zn-blood complex suspension,[8]; concentration of solution not given,1.2 mL
same,"amount needed to completely dissolve Zn-blood complex suspension, compared with lysine phosphate/lysine chloride/arginine phosphate/arginine chloride",[8],tens to hundreds of times lower
same,concentration that inactivates toxins/neurotoxins while preventing proliferation of microorganisms,[18],over 30 ppm
same,survival of fish in CuCl2 with chelator,[6],will not die after several weeks
same,survival of mice fed flocoumafen,[14]; 0.3% in drinking water from 12 hours after flocoumafen,after many days the mice still lived
same,appearance of metallic Cu suspension,[10],metallic Cu suspension will not appear
triethylenetetramine glutamate,recovery of sweet taste,[11],fully recovered
same,disappearance of ZnCl2-induced symptoms,[12],gradually disappear after a few hours
same,appearance of metallic Cu suspension,[10],metallic Cu suspension will not appear
